Patent US20050054013A1, “Methods and products for identifying modulators of P2X7 receptor activity, and their use in the treatment of skeletal disorders” (Pfizer Inc, priority 2001, published 2005)

Key:
IL-6 = assay: In vivo cytokine production: IL-6 in peritoneal lavage of LPS-primed mice by ELISA; details: LPS-primed mice subsequently challenged with ATP; 4 hour time point
Protocol: Groups of mice are injected intraperitoneally (ip) with 1 μg of LPS. […] Samples of peritoneal lavages are spun down, and the supernatants are collected and tested for the presence of IL-1β and IL-6 using ELISAs (Amersham Life Sciences, Arlington Heights, Va. and Endogen, Woburn, Mass., respectively).
IL-1 signaling may lead to the production of other cytokines such as IL-6 (Allen et al. (2000), J. Exp. Med. 191:859-869). […] The animals are incubated for an additional period (e.g., 4 hours) and peritoneal lavages are collected several times during the course of the incubation and analyzed for cytokines by ELISA. […] By 4 hours, however, IL-6 levels recovered from the LPS-PBS treated animals returned to baseline.

P2X7 receptor = target: T1, P2X7 receptor (Mus musculus, UniProt Q9Z1M0); assay: P2X7 receptor-mediated YoPro Yellow uptake in peritoneal macrophages; type: cell-based; details: peritoneal macrophages from wild-type animals, 5 mM ATP, extracellular YoPro Yellow
T1 construct: endogenous in cells; host or cells: peritoneal macrophages isolated from wild-type animals
T1 sequence (Q9Z1M0 1-595): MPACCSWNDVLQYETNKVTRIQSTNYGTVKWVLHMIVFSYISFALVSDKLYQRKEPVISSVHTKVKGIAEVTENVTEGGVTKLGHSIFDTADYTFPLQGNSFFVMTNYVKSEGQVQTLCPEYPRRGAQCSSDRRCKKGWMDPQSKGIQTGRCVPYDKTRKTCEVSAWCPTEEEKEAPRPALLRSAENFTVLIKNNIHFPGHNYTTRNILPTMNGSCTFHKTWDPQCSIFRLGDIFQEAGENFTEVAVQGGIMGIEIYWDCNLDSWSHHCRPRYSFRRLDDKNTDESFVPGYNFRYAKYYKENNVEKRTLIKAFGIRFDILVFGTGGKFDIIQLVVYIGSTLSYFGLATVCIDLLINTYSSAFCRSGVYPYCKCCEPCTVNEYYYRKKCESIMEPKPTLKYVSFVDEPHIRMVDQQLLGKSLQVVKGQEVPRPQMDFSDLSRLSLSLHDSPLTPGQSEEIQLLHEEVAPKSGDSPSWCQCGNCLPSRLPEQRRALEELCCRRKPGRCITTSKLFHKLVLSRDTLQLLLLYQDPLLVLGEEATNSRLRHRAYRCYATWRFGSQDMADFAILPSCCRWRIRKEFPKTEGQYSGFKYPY
Protocol: This increase in fluorescence results from internalization of the dye molecules followed by their binding to DNA; when bound to DNA, the fluorescence intensity increases.
When assaying P2X7 receptor function using isolated macrophages, the peritoneal macrophages are washed with isotonic medium (15 mM HEPES, pH 7.2, 135 mM NaCl, 5 mM KCl, […], […]) by centrifugation and the resulting cell pellet is suspended in isotonic medium to achieve a final cell concentration of about 1×10^6 cells/ml. Fifty μl of this cell suspension is placed into the wells of a plate (e.g., Microfluor “B” U-bottom plate, Dynatech, Chantilly, Va.), and 50 μl of a fluorescent dye (e.g., 2 μM YoPro Yellow, Molecular Probes, Eugene, Oreg.) dissolved in the isotonic medium is added to each well. Test compounds or control vehicles are added to the wells with or without the addition of […]. Fluorescence is monitored as a function of time at […]. For YoPro Yellow dye, excitation is at 450 nm and emission is measured at 530 nm. Test compounds which stimulate P2X7 receptor activity increase fluorescence as compared to control samples that lack test compound.

other P2X receptors = details: cited from earlier work

## Nc1ncnc2c1ncn2[C@@H]1O[C@H](COP(=O)(O)OP(=O)(O)OP(=O)(O)O)[C@@H](O)[C@H]1O [ATP, adenosine triphosphate]
IL-6
  lavage fluid IL-6, peak value: > 25 ng/mL
P2X7 receptor
  fluorescence intensity (YoPro Yellow internalization): time dependent increase in fluorescence intensity
Other P2X receptors
  ATP concentrations at which receptors activate: less than or equal to 100 μM
